According to PubChem BioAssay AID180 (DTP/NCI, 2004):
“And” between values parts separate entries of the source, which are not always exact repeats. Equal values may be shown once.

System: BDF1 mice, Adenocarcinoma 755 s.c., tumor weight T/C
Assay: NCI In Vivo Anticancer Drug Screen. Data for tumor model Adenocarcinoma 755 (subcutaneous) in B6D2F1 (BDF1) mice
Details: endpoint: mean tumor weight, higher = larger tumour
Protocol: The antitumor activity of compounds was measured in mice bearing transplantable tumors. Survival or tumor size were measured and the results are expressed as the measurement made in the treated group (T) divided by the measurement made in the vehicle treated control group (C). The tumor model used in this assay is Adenocarcinoma 755 (subcutaneous) in B6D2F1 (BDF1) mice

[1] = dose: 5.0 mg/kg/injection, schedule: Q01DX011 (ip), vehicle: saline
[2] = dose: 10.0 mg/kg/injection, schedule: Q01DX011 (ip), vehicle: methylcellulose (MC)
[3] = dose: 10.0 mg/kg/injection, schedule: Q01DX011 (ip), vehicle: saline
[4] = dose: 20.0 mg/kg/injection, schedule: Q01DX011 (ip), vehicle: methylcellulose (MC)
[5] = dose: 20.0 mg/kg/injection, schedule: Q01DX011 (ip), vehicle: saline
[6] = dose: 40.0 mg/kg/injection, schedule: Q01DX011 (ip), vehicle: methylcellulose (MC)
[7] = dose: 40.0 mg/kg/injection, schedule: Q01DX011 (ip), vehicle: saline
[8] = dose: 56.0 mg/kg/injection, schedule: Q01DX011 (ip), vehicle: methylcellulose (MC)
[9] = dose: 113.0 mg/kg/injection, schedule: Q01DX011 (ip), vehicle: methylcellulose (MC)
[10] = dose: 25.0 mg/kg/injection, schedule: Q01DX011 (ip), vehicle: methylcellulose (MC)

For `COC1C(OC(=O)/C=C/C=C/C=C/C=C/C(=O)O)CCC2(CO2)C1C1(C)OC1CC=C(C)C` (centres undefined), the T/C (dose: 2.5 mg/kg/injection, schedule: Q01DX011 (ip), vehicle: other) was 49 % of control, the T/C (dose: 5.0 mg/kg/injection, schedule: Q01DX011 (ip), vehicle: other) was 61 % of control and the T/C [1] was 78 % of control. For the same compound, the T/C [2] was 38 % of control, the T/C (dose: 10.0 mg/kg/injection, schedule: Q01DX011 (ip), vehicle: other) was 40 % of control and the T/C [3] was 94 % of control. For the same compound, the T/C [4] was 28 % of control, the T/C (dose: 20.0 mg/kg/injection, schedule: Q01DX011 (ip), vehicle: other) was 22 % of control and the T/C [5] was 49 % of control. The T/C [6] was 24 % of control, the T/C (dose: 40.0 mg/kg/injection, schedule: Q01DX011 (ip), vehicle: other) was 18 % of control and the T/C [7] was 63 % of control. For the same compound, the T/C (dose: 80.0 mg/kg/injection, schedule: Q01DX011 (ip), vehicle: other) was 26 % of control and the T/C (dose: 80.0 mg/kg/injection, schedule: Q01DX011 (ip), vehicle: saline) was 58 % of control.

In the case of `CS(=O)(=O)OCCC(=O)NCCCCNC(=O)CCOS(C)(=O)=O`, the T/C (dose: 56.0 mg/kg/injection, schedule: Q01DX011 (ip), vehicle: carboxymethylcellulose (CMC)) is reported as 66 % of control, the T/C [8] is reported as 85 % of control and the T/C (dose: 113.0 mg/kg/injection, schedule: Q01DX011 (ip), vehicle: carboxymethylcellulose (CMC)) is reported as 48 % of control. The T/C [9] was 31 % of control, the T/C (dose: 225.0 mg/kg/injection, schedule: Q01DX011 (ip), vehicle: carboxymethylcellulose (CMC)) was 12 % of control and the T/C (dose: 225.0 mg/kg/injection, schedule: Q01DX011 (ip), vehicle: methylcellulose (MC)) was 8 % of control. For the same compound, the T/C (dose: 450.0 mg/kg/injection, schedule: Q01DX011 (ip), vehicle: carboxymethylcellulose (CMC)) was 7 % of control.

`Cn1ccc(N)nc1=O` was tested, and the T/C (dose: 15.0 mg/kg/injection, schedule: Q01DX011 (ip), vehicle: methylcellulose (MC)) was 88 % of control, the T/C (dose: 31.0 mg/kg/injection, schedule: Q01DX011 (ip), vehicle: methylcellulose (MC)) was 108 % of control and the T/C (dose: 62.0 mg/kg/injection, schedule: Q01DX011 (ip), vehicle: methylcellulose (MC)) was 98 % of control. For the same compound, the T/C (dose: 125.0 mg/kg/injection, schedule: Q01DX011 (ip), vehicle: methylcellulose (MC)) was 84 % of control.

`CCCCn1cnc2c(SC)ncnc21` was tested, and the T/C [1] was 89 % of control, the T/C (dose: 7.5 mg/kg/injection, schedule: Q01DX011 (ip), vehicle: saline) was 119 % of control and the T/C [3] was 65 % of control. For the same compound, the T/C [5] was 20 % of control, the T/C (dose: 30.0 mg/kg/injection, schedule: Q01DX011 (ip), vehicle: saline) was 26 % of control and the T/C [7] was 14 % of control. The T/C (dose: 50.0 mg/kg/injection, schedule: Q01DX011 (ip), vehicle: saline) was 10 % of control, the T/C (dose: 53.0 mg/kg/injection, schedule: Q01DX011 (ip), vehicle: saline) was 5 % of control and the T/C (dose: 84.0 mg/kg/injection, schedule: Q01DX011 (ip), vehicle: saline) was 5 % of control. For the same compound, the T/C (dose: 125.0 mg/kg/injection, schedule: Q01DX011 (ip), vehicle: saline) was 4 % of control and the T/C (dose: 187.0 mg/kg/injection, schedule: Q01DX011 (ip), vehicle: saline) was 1 % of control.

For `Cn1c(=O)c2c(nc(N/N=C/c3ccccc3Br)n2C)n(C)c1=O`, the T/C (dose: 30.0 mg/kg/injection, schedule: Q01DX011 (ip), vehicle: carboxymethylcellulose (CMC)) was 96 % of control, the T/C (dose: 120.0 mg/kg/injection, schedule: Q01DX011 (ip), vehicle: carboxymethylcellulose (CMC)) was 101 % of control and the T/C (dose: 240.0 mg/kg/injection, schedule: Q01DX011 (ip), vehicle: carboxymethylcellulose (CMC)) was 89 % of control.

With `O=C(CCBr)NCCCCNC(=O)CCBr` the T/C [8] was 83 % of control and the T/C [9] was 78 % of control.

`O=C(CCBr)NCNC(=O)CCBr` was tested, and the T/C (dose: 28.0 mg/kg/injection, schedule: Q01DX011 (ip), vehicle: methylcellulose (MC)) was 56 % of control and the T/C (dose: 57.0 mg/kg/injection, schedule: Q01DX011 (ip), vehicle: methylcellulose (MC)) was 28 % of control.

For `Cc1ccc(CNc2ncnc3[nH]ncc23)cc1C`, the T/C [10] was 95 % of control, the T/C (dose: 50.0 mg/kg/injection, schedule: Q01DX011 (ip), vehicle: methylcellulose (MC)) was 72 % of control and the T/C (dose: 100.0 mg/kg/injection, schedule: Q01DX011 (ip), vehicle: methylcellulose (MC)) was 64 % of control. For the same compound, the T/C (dose: 300.0 mg/kg/injection, schedule: Q01DX011 (ip), vehicle: methylcellulose (MC)) was 68 % of control.

For `[N-]=[N+]=CC(=O)NCC(=O)NN`, the T/C (dose: 62.5 mg/kg/injection, schedule: Q01DX011 (ip), vehicle: saline) was 115 % of control, the T/C (dose: 250.0 mg/kg/injection, schedule: Q01DX011 (ip), vehicle: saline) was 39 % of control and the T/C (dose: 500.0 mg/kg/injection, schedule: Q01DX011 (ip), vehicle: saline) was 43 % of control.

For `CC1CCN(/N=N/c2nc3c([nH]2)c(=O)n(C)c(=O)n3C)CC1`, the T/C [10] was 41 % of control and the T/C (dose: 75.0 mg/kg/injection, schedule: Q01DX011 (ip), vehicle: methylcellulose (MC)) was 57 % of control.

`Nc1nsnc1C(=O)O` was tested, and the T/C (dose: 93.0 mg/kg/injection, schedule: Q01DX011 (ip), vehicle: carboxymethylcellulose (CMC)) was 80 % of control and the T/C (dose: 187.0 mg/kg/injection, schedule: Q01DX011 (ip), vehicle: carboxymethylcellulose (CMC)) was 98 % of control.

With `CCCCCCCCCCCCCCCCCCN(C)C` the T/C (dose: 12.0 mg/kg/injection, schedule: Q01DX011 (ip), vehicle: distilled water + alcohol) was 61 % of control, the T/C (dose: 18.0 mg/kg/injection, schedule: Q01DX011 (ip), vehicle: distilled water + alcohol) was 43 % of control and the T/C (dose: 27.0 mg/kg/injection, schedule: Q01DX011 (ip), vehicle: distilled water + alcohol) was 51 % of control. For the same compound, the T/C (dose: 40.0 mg/kg/injection, schedule: Q01DX011 (ip), vehicle: distilled water + alcohol) was 36 % of control.

For `O=CNC(Cc1ccc(N(CCCl)CCCl)cc1)C(=O)O` (centres undefined), the T/C (dose: 1.25 mg/kg/injection, schedule: Q01DX011 (ip), vehicle: carboxymethylcellulose (CMC)) was 94 % of control, the T/C (dose: 1.25 mg/kg/injection, schedule: Q01DX011 (ip), vehicle: saline) was 87 % of control and the T/C (dose: 2.5 mg/kg/injection, schedule: Q01DX011 (ip), vehicle: carboxymethylcellulose (CMC)) was 54 % of control. The T/C (dose: 2.5 mg/kg/injection, schedule: Q01DX011 (ip), vehicle: saline) was 91 % of control, the T/C (dose: 5.0 mg/kg/injection, schedule: Q01DX011 (ip), vehicle: carboxymethylcellulose (CMC)) was 31 % of control and 50 % of control and the T/C [1] was 71 % of control. For the same compound, the T/C (dose: 10.0 mg/kg/injection, schedule: Q01DX011 (ip), vehicle: carboxymethylcellulose (CMC)) was 23 % of control, the T/C [2] was 34 % of control and the T/C [3] was 66 % of control. The T/C [4] was 34 % of control, the T/C (dose: 40.0 mg/kg/injection, schedule: Q01DX011 (ip), vehicle: carboxymethylcellulose (CMC)) was 2 % of control and the T/C [6] was 23 % of control. The T/C (dose: 80.0 mg/kg/injection, schedule: Q01DX011 (ip), vehicle: methylcellulose (MC)) was 4 % of control.

In the case of `CCC(=O)OCC1OC(n2cnc3c(=S)nc(N)[nH]c32)C(OC(=O)CC)C1OC(=O)CC` (centres undefined), the T/C (dose: 1.5 mg/kg/injection, schedule: Q01DX011 (ip), vehicle: carboxymethylcellulose (CMC)) is reported as 96 % of control, the T/C (dose: 3.0 mg/kg/injection, schedule: Q01DX011 (ip), vehicle: carboxymethylcellulose (CMC)) is reported as 17 % of control and the T/C (dose: 6.0 mg/kg/injection, schedule: Q01DX011 (ip), vehicle: carboxymethylcellulose (CMC)) is reported as 3 % of control. For the same compound, the T/C (dose: 12.0 mg/kg/injection, schedule: Q01DX011 (ip), vehicle: carboxymethylcellulose (CMC)) was 1 % of control.

With `O=C(O)CCC(=O)NO` the T/C (dose: 50.0 mg/kg/injection, schedule: Q01DX011 (ip), vehicle: carboxymethylcellulose (CMC)) was 96 % of control, the T/C (dose: 100.0 mg/kg/injection, schedule: Q01DX011 (ip), vehicle: carboxymethylcellulose (CMC)) was 98 % of control and the T/C (dose: 200.0 mg/kg/injection, schedule: Q01DX011 (ip), vehicle: carboxymethylcellulose (CMC)) was 84 % of control.

With `NC(=S)N/N=C/c1cccnc1` the T/C (dose: 1:1000.0 dilution, schedule: Q01DX006 (ip), vehicle: water) was 124 % of control and the T/C (dose: 1:2000.0 dilution, schedule: Q01DX006 (ip), vehicle: water) was 110 % of control.

`CC(Sc1nc(N)nc2nc[nH]c12)C(=O)O` (centres undefined) was tested, and the T/C (dose: 37.5 mg/kg/injection, schedule: Q01DX011 (ip), vehicle: saline) was 81 % of control, the T/C (dose: 75.0 mg/kg/injection, schedule: Q01DX011 (ip), vehicle: saline) was 74 % of control and the T/C (dose: 150.0 mg/kg/injection, schedule: Q01DX011 (ip), vehicle: saline) was 45 % of control. The T/C (dose: 300.0 mg/kg/injection, schedule: Q01DX011 (ip), vehicle: saline) was 12 % of control.
